The results in this text go back to patent publication US5795977A, “Water soluble adenosine kinase inhibitors” (Metabasis Therapeutics, Inc., priority 1996, dated 1998).

One series relates to mice. Kind of series: HPLC analysis of plasma, metabolism in mice. Conditions: oral, 10 mg/kg. In kind it is in vivo, mouse.
Series [1] addresses partially purified pig heart adenosine kinase or recombinant human adenosine kinase. Put plainly: AK inhibition. The following applies: 0.5 μM [U-14C] adenosine, pH 7.0, 37° C., 20 minutes. Format: biochemical. Here is the method:
Adenosine kinase activity was measured essentially as described by Yamada et al. Biochim. Biophys. Acta 660, 36-43 (1988) with a few minor modifications. Assay mixtures contained 50 mM TRIS-maleate buffer, pH 7.0, 0.1% BSA, 1 mM ATP 1 mM MgCl2, 0.5 μM [U-^14 C] adenosine (400-600 mCi/mmol) and varying duplicate concentrations of inhibitor. […] The amount of ^14 C-AMP was quantified by scintillation counting.

A further series relates to Rats (formalin paw). Kind of series: Formalin paw assay. In kind it is in vivo. Conditions: rat, oral 90 min prior, 10.3-30 min post-formalin, vs vehicle. Here is the method: In this assay, injection of formalin, an irritant, into the hindpaw of rats typically evokes a biphasic response of pain-related behaviors. Phase 1 of the response which is brief, lasting approximately 0-5 min post-injection,is followed by a more prolonged phase 2, lasting approximately 10-80 min post-injection. Phase 1 behavior is thought to be a direct effect of the irritant on nociceptors at the injection site while phase 2 behavior is thought to include a hyperalgesic component mediated by sensitization of neuronal elements within the spinal cord. Studies from other laboratories have found the first portion of Phase 2 (sometimes referred to as Phase 2a) to be most responsive to pharmacological manipulation.
Rats (male, Simonsen) weighing between 100-200 g, are used in the present experiments. For screening purposes drugs are administered orally 90 min prior to initiation of formalin test. At designated intervals the animals in groups of 4 are placed individually in a small animal restrainer with the right hindpaw accessible through a hole in the bottom of the restrainer. The formalin paw assay is initiated by the injection using a 30G needle of 50 ul of a 5% formalin solution in saline into the right plantar surface of each hindpaw. […]
Scores are continuously recorded directly onto an Excel spreadsheet.

Another series relates to Rats (carrageenan paw). Put plainly: Anti-inflammatory activity, carrageenan paw swelling. Format: in vivo. Conditions: rat, 10 mg/kg, swelling after 3 hours. Here is the method:
Carrageenan (Type λ) was suspended in sterile PBS at 1% (w/v), autoclaved for 30 minutes, and stored at room temperature. Rats were pretreated with vehicle or AK inhibitor (10 mg/kg) by oral gavage or i.p. administration and the volume of the left hind paw was measured using a water displacement plethysmometer (Stoelting Co., Wood Dale, Ill.). One hour after oral treatment or 30 minutes after i.p. treatment, the rats were briefly anesthetized, and 0.1 ml of the carrageenan solution was injected subcutaneously into the planar surface of the left hind paw. The ensuing paw swelling was measured by plethysmometry after 3 hours. The paw volume in millileters was […]. Data are presented in Table 2 as the percent inhibition of paw swelling in AK inhibitor treated animals, compared to vehicle treated control animals.
(Carrageenan injected into the paw causes an acute inflammation.)

Series [2] has as its system male SA rats (maximal electroshock seizures). Kind of series: Anticonvulsant activity, maximal electroshock seizures (MES). Format: in vivo. Conditions: rat, po, fasted; >> = no activity at the stated dose. As for the experimental part:
The anticonvulsant activity of the tested compounds was evaluated in male SA rats (100-150g, Simonsen) using the maximal electroshock (MES) model described in Swinyard et al., Antiepileptic Drugs, 3d Ed. at 85-102 (Levy, et al., eds.), NY: Raven Press (1989). The rats were maintained on a 12/12 light/dark cycle in temperature controlled facilities with free access to food and water. For p.o. administration, the animals are fasted overnight, prior to the experiment. One to two hours prior to seizure testing, the animals were injected interperitoneally (ip) or orally (per os, po) with one of various doses of test compound dissolved in DMSO or PEG 400.
This endpoint was expressed as the percentage of animals in which the response was inhibited.
On the technique in general: The maximal electroshock test induces tonic seizures with an electrical stimulus.

The next series can be described thus: Water solubility. In kind it is physicochemical. Conditions: suitable pH for i.v. administration (e.g. pH 4 to 10). As for the experimental part: The sample was sonicated for a period of up to 20 minutes. If a solution was not obtained, further solvent was added and the process was repeated until a clear solution was obtained, and the results were recorded. Solutions used were 50 mM potassium biphthalate (pH 4); 100 mM glycine (pH 9); 25 mM sodium carbonate and 25 mM sodium bicarbonate (pH 10); or deionized water (DI).

`C[C@H]1O[C@@H](n2cc(I)c3c(NCCc4ccccn4)ncnc32)[C@H](O)[C@@H]1O` [Compound 43, 4-N-(2-(2-pyridylethyl)amino)-5-iodo-7-(5-deoxy-1-β-D-ribofuranosyl)pyrrolo[2,3-d]pyrimidine]: in the series on mice, the “metabolism to a potent AK inhibitor, HPLC analysis of plasma” value is recorded as “undergo metabolism in mice after oral administratio”. Besides, in series [1], the IC50 (commonly the midpoint of a concentration-inhibition curve) came to 10 µM.

On to `C[C@H]1O[C@@H](n2cc(-c3ccccc3)c3c(Nc4ccc(CCN5CCOCC5)cc4)ncnc32)[C@H](O)[C@@H]1O` [Compound 3, 4-N-[4-(2-(4-morpholino)ethyl)phenyl]amino-5-phenyl-7-(5-deoxy-β-D-ribofuranosyl)pyrrolo[2,3-d]pyrimidine], for which the “Phase 2 composite score, percent inhibition” value in the series with Rats (formalin paw) came to 31%. In addition, in the series with Rats (carrageenan paw) (ip), the “Carrageenan Paw (% inhibition) ip” value stood at 19.5%. Also, in the series on Rats (carrageenan paw) (oral gavage), the “Carrageenan Paw (% inhibition) po” value is 9.8%. Besides, the IC50 in series [1] stood at 0.002 µM. For the same molecule, the ED50 (usually the dose at which the effect has come halfway, by size or by number of responders) in series [2] is > 10 mg/kg.

As to `C[C@H]1O[C@@H](n2cc(-c3ccccc3)c3c(Nc4ccccc4)ncnc32)[C@H](O)[C@@H]1O` [5-phenyl-4-N-phenylamino-7-(5-deoxy-1-β-D-ribofuranosyl)pyrrolo[2,3-d]pyrimidine], the water solubility entry in “Water solubility” is recorded as “less than 20 μg/ml”.
